Consider twelve molecules from patent US20030229114A1, “Pyrroloquinoline quinone drugs as a neuroprotectant and methods of use thereof” (priority 2002, published 2003).

In one data set the test system is G93A-SOD transgenic mice. As to conditions: cited from earlier work.
Data set [1] deals with cultured rat forebrain neurons. The data set can be described thus: Survival assay of neuronal cultures (Alamar Blue reduction, 24 hr). The settings on record: for Effect on neurotoxicity induced by NMDA plus DETA/NO: PBN at 10 mM, TEMPO at 1 mM applied 1 hr before; for Cell (neuronal) survival: ONOO− 100 μM alone, without PQQ; for Synergism with NMDA in producing neurotoxicity: DEA/NO 100 μM, DPT/NO 300 μM. The procedure: Neuronal cultures were prepared from embryonic day 16 Sprague Dawley rat fetuses using methods similar to those previously described (Dichter, 1978) but modified to produce cultures that contained <1% astrocytes (Rosenberg and Aizenman, 1989; Rosenberg, 1991; Rosenberg et al., 1992; Wang et al., 1998). Cultures were initially plated on poly-L-lysine-coated 24-well plastic plates (Costar, Cambridge, Mass.) using an 80:10:10 (v/v) mixture ofDMEM (Life Technologies 11960-010), Ham's F-12 (Sigma, N-4888), heat-inactivated iron-supplemented calf serum (Hyclone A2151), containing 2 mM glutamine, 25 mM HEPES, 24 U/ml penicillin, and 24 μg/ml streptomycin and maintained in a 5% CO2 (balance air) incubator at 36° C. Cell proliferation was inhibited by exposure to 5 μM cytosine arabinoside at 24 hr in vitro for 72 hr. On the fourth day of culture, the medium was completely removed and replaced with 90% MEM, 10% Nuserum IV (Collaborative Research), 2 mM glutamine, 5 mM HEPES, containing 50 units/ml superoxide dismutase (Boehringer Mannheim, Indianapolis, Ind.), 20 units/ml catalase (Sigma CV-40), total glucose 11 mM, and total sodium bicarbonate 9.3 mM, plus 2% B27 supplement (Life Technologies 17504-036). Medium was not subsequently changed. To prevent evaporation of water, culture dishes were kept in wet dishes containing filter paper that was always kept wet.
In all experiments, 24-well plates were first washed three times in Hank's balanced salt solution (HBSS) containing 0.1% bovine serum albumin (BSA), and then they were placed in Earle's balanced salt solution (EBSS, which is composed of 116 mM NaCl, 5.4 mM KCl, 1.8 mM CaCl2, 0.8 mM MgSO4, 26 mM NaHCO3, 1 mM NaH2PO4 and 5.5 mM D-glucose). Experiments were carried out exclusively in EBSS. […] PQQ was directly dissolved in EBSS.
Survival of cells was determined after 24 hr exposure to the test compounds by assessing the ability of cultures to reduce Alamar Blue (Trek Diagnostic Systems, Inc., Westlake, Ohio) as an index of viability (McGahon et al., 1995). Details of this procedure have been provided elsewhere (Back et al., 1998, 1999). In brief, the test medium was removed after 24 hr, and then replaced with EBSS plus a 1:100 dilution of Alamar Blue. After 2 hr exposure, the medium was diluted 50-fold with water, and the fluorescence intensity was determined in a Hitachi fluorescence spectrophotometer using an excitation wavelength of 530 nm and an emission wavelength of 590 nm. The photomultiplier voltage was set at 700 V. In some experiments, the cell viability determined by Alamar Blue was compared to that determined by the assay of lactate dehydrogenase (LDH) release (Koh and Choi, 1987).

The test system of data set [2] is cultured rat forebrain neurons. Kind of data set: Assay of intracellular ATP in neuronal cultures (firefly luciferase). Format: cell-based. How it is done: (§1) Medium was not subsequently changed.
Experiments were carried out exclusively in EBSS. […] PQQ was directly dissolved in EBSS.
The Bioluminescent Somatic Cell Assay kit from Sigma (catalog No. FL-ASC) was used for assay of ATP as previously described (Rosenberg et al., 2000). At selected time points after addition of drug or vehicle, medium was removed, and then replaced with 200 μl of cell lysis agent. After brief agitation, the medium was transferred to microcentrifuge tubes that contained 200 μl of water. The tubes were placed on wet ice until assay. ATP assay mix was used at 25-fold dilution, and 100 μl of the extract was assayed.

The subject of data set [3] is cultured rat forebrain neurons. The data set can be described thus: Measurement of intracellular cGMP in neuronal cultures (enzyme-linked immunoassay). The class given is cell-based. The procedure:
as §1
Intracellular cGMP was assayed by enzyme-linked immunoassay (Amersham). Cultures were washed three times, and then medium was replaced by EBSS with or without PQQ or SOD. The non-specific phosphodiesterase inhibitor, 3-isobutyl-1-methylxanthine (IBMX) at 100 μM was present in all conditions. DEA/NO, SIN-1 and peroxynitrite were added for 5 min, and then the medium was replaced with 200 μl of releasing reagent provided in the kit. The plates were agitated for 20 min at room temperature, and 20 μl of acetylation reagent was added. After 5 min, 50 μl samples were taken for assay.

The next data set deals with BSA. Kind of data set: Western blot of BSA tyrosine nitration, cell-free (anti-nitrotyrosine antibody). As to conditions: SIN-1 1 mM alone. The class given is biochemical, bovine. The procedure:
BSA (0.5 mg/ml) in EBSS with or without PQQ was exposed to SIN-1 or peroxynitrite for 1 hr, and then 4× sample buffer (40% glycerol, 20% β-mercaptoethanol, 0.004% bromophenol blue, 6.4% SDS, 25% 1M Tris-HCl, pH 6.8) was added. After the samples were heated for 5 min, 2 μg protein per lane was subjected to SDS-PAGE analysis, followed by transfer to PVDF membrane (NEN Life Science, Boston, Mass.) and reacted with a mouse anti-nitrotyrosine monoclonal antibody (Upstate Biotechnology). Proteins were visualized with horseradish peroxidase-conjugated sheep anti-mouse immunoglobulin G (IgG) followed by detection with enhanced chemiluminescence.

Another data set has as its system Oligodendrocytes. The data set can be described thus: In vitro white matter injury assay: SIN-1 toxicity in oligodendrocytes. The class given is cell-based. The settings on record: 2 hr exposure in EBSS; examined at 24 hr. The procedure:
Oligodendrocytes were exposed to various concentrations of SIN-1 (0, 0.25, 0.5, 1 and 2 mM) in EBSS for 2 hr with or without PQQ (100 μM), then washed with HBSS containing 0.1% BSA for 2 times. Oligodendrocytes were then returned to the culture medium. The neurotoxicity was examined at 24 hr.
To illustrate the neuroprotective benefits of the invention, PQQ was used to show oligodendrocytes protection from cell toxicity in an in vitro white matter injury assay. Oligodendrocytes were exposed to various concentrations of SIN-1 (0, 0.25, 0.5, 1 and 2 mM) in EBSS for 2 hr with or without PQQ (100 μM), then washed with HBSS containing 0.1% BSA for 2 times. Oligodendrocytes were then returned to the culture medium. The neurotoxicity was examined at 24 hr.

Where [4] appears, read: five minutes, agent alone: SIN-1 100 μM, ONOO− 100 μM or DEA/NO 10 μM, IBMX 100 μM.
The mark [5] stands for this setting: nitric oxide donor 1 mM alone (FIG. 6B).
Where [6] appears, read: nitric oxide donor 1 mM without MK-801 (FIG. 5A).
The mark [7] stands for this setting: one hour after nitric oxide donor 1 mM alone.

Several values for one entry are separate records, joined by “and”; a condition that tells them apart may be missing. Identical values can stand only once. Entries after “also recorded” stand apart in the source; their conditions may differ.

Regarding `COc1cccc(C=NCCN=Cc2cccc(OC)c2[O-])c1[O-].[Cl-].[Mn+3]` [EUK-134], in the data set with G93A-SOD transgenic mice, the “Effect on protein tyrosine nitration” value is “reduced protein tyrosine nitration” and the “Effect on survival of transgenic animals” value is “prolonged survival”.

As to `CC1(C)CCCC(C)(C)N1[O]` [TEMPO, 2,2,6,6-tetramethyl-1-piperidinyl-1-oxyl], the “Effect on neurotoxicity induced by NMDA plus DETA/NO” value in data set [1] (24 hr exposure) is “not demonstrably neuroprotective; also recorded: no demonstrable effect”; in data set [1] (four hour exposure) it was “complete neuroprotection; also recorded: block”.

As to `O=NOO` [ONOO^−, peroxynitrite], the “Cell (neuronal) survival” value was determined as 52.4±0.4% in data set [1] and 49±7.3% in data set [1] (listed as peroxynitrite). Moreover, the “Intracellular ATP” value is recorded as 37±9.9% in data set [2] (of control values, 1 hr ONOO− 100 μM alone) and 40.5±11% in data set [2] (of control values, 1 hr ONOO− 100 μM alone, listed as peroxynitrite). Besides, the “ATP level after 5 min exposure” value in data set [2] (peroxynitrite 100 μM, 5 min) is 50 % of its original levels. Further, the “Intracellular cGMP content” value in data set [3] (setting [4]) is 111±11.2 % of control and 97±14.4 % of control; in data set [3] (five minutes, agent alone: SIN-1 100 μM, ONOO− 100 μM or DEA/NO 10 μM, IBMX 100 μM, listed as peroxynitrite), 95.6±4.3 % of control.

As for `NCCN(CCN)/[N+]([O-])=N/O` [DETA/NO, diethylaminetriamine NONOate], in data set [1] (DETA/NO 300 μM with kainate 20 μM), the “Synergistic effect with kainate in producing neurotoxicity” value is on record as “synergistic effect”. The values for the Neuronal survival in data set [1] (setting [5]) and in data set [1] (setting [6]) were 25.2±10.6 % of control and 27.9±8.0%, respectively.

On to `CC(C)(C)[N+]([O-])=Cc1ccccc1` [PBN, alpha-phenyl-N-tert butyl nitrone], for which the “Effect on neurotoxicity induced by NMDA plus DETA/NO” value in data set [1] (24 hr exposure) is on record as “not demonstrably neuroprotective; also recorded: no demonstrable effect”; in data set [1] (four hour exposure), “complete neuroprotection; also recorded: block”.

Take `NCCCN(CCCN)/[N+]([O-])=N/O` [DPT/NO, dipropylenetriamine NONOate]: the “Synergism with NMDA in producing neurotoxicity” value in data set [1] was “synergism”. Besides, the Neuronal survival in data set [1] (setting [5]) was 1.9±0.8 % of control; in data set [1] (setting [6]), 6.5±5.3%. Moreover, in data set [2] (setting [7]), the “Intracellular ATP” value was 62.6±4.5 % of control and 64.9±13.7 % of control.

For the molecule `O=C(O)c1ccc(C2=C3C=CC(=N3)C(c3ccc(C(=O)O)cc3)=c3ccc([nH]3)=C(c3ccc(C(=O)O)cc3)c3ccc([n-]3)C(c3ccc(C(=O)O)cc3)c3ccc2[n-]3)cc1.[Cl-].[Mn+3]` (centres unmarked) [MnTBAP, Mn (III) tetrakis (4-benzoic acid) porphyrin chloride], the “Effect on SIN-1 toxicity” value in data set [1] (MnTBAP 100 μM, SIN-1 1 mM) is “completely protected”. In data set [1] (MnTBAP (TBAP), SIN-1 1 mM), the “Effect on neurotoxicity induced by SIN-1” value is recorded as “completely blocks”. In addition, in data set [1] (MnTBAP, ONOO− 100 μM), the “Effect on ONOO− (peroxynitrite) toxicity” value is on record as “blocked; also recorded: fully protected”.

Regarding `[Cl-].[Mn+3].[O-]c1ccccc1C=NCCN=Cc1ccccc1[O-]` [EUK-8], in the data set with G93A-SOD transgenic mice, the “Effect on protein tyrosine nitration” value was “reduced protein tyrosine nitration” and the “Effect on survival of transgenic animals” value was “prolonged survival”.

Regarding `CCN(CC)/[N+]([O-])=N/O.CCNCC` [DEA/NO, diethylamine NONOate], the “Neurotoxicity to neurons in culture” value in data set [1] (1 mM, in three out of six experiments) was “did not cause any toxicity”. The “Synergism with NMDA in producing neurotoxicity” value in data set [1] is “synergism”. Moreover, the Neuronal survival in data set [1] (setting [5]) is 48.7±14.6 % of control; in data set [1] (setting [6]), 18.2±5.3%. The “Intracellular ATP” value in data set [2] (setting [7]) was 51.6±5.8 % of control and 50.8±20.9 % of control. The “Intracellular cGMP content” value in data set [3] (setting [4]) was 250±15.5 % of control and 215±32.2 % of control and 318.5±31 % of control.

As to `CN[C@H](CC(=O)O)C(=O)O` [NMDA], in data set [1] (24 h exposure, NMDA 20 μM or DETA/NO 300 μM), the “Toxicity to neurons, applied alone” value was “does not produce toxicity”.

On to `N=c1c[n+](N2CCOCC2)[n-]o1` [SIN-1, 3-morpholinosydnonimine], for which the “Nitration of BSA” value in the data set with BSA is “strong nitration”. Also, the “Exposure time to maximal ATP depletion” value in data set [2] (SIN-1 1 mM) was found to be 1 h. In addition, the “Intracellular ATP” value in data set [2] (of control values, 1 hr exposure to SIN-1 1 mM alone) was 43±15.6% and 43.3±18.7%. The molecule further yielded a concentration giving a half-maximal response (EC50) in the data set with Oligodendrocytes of 345 ± 91 µM. Moreover, the “Intracellular cGMP content” value in data set [3] (setting [4]) was 192±10.7 % of control and 207.6±11.5 % of control and 220.5±39.4 % of control.

With SOD: bovine superoxide dismutase, in data set [1] (SOD 100 U/ml co-applied with SIN-1 500 μM, no catalase), the “Effect on SIN-1 toxicity to neurons” value was “potentiated”. Besides, in data set [1] (SOD 100 U/ml together with catalase (CAT) 100 U/ml, SIN-1 1 mM, 24 hr), the “Effect on SIN-1 toxicity” value is “completely blocked; also recorded: fully prevented”. Further, in data set [1] (co-application of SOD 100 U/ml and SIN-1 500 μM), the Neuronal survival was 16.8±6.3 % of control and 11.6±1.2 % of control. Further, the “Intracellular cGMP content” value was 310.3±33.4 % of control in data set [3] (DEA/NO 10 μM in the presence of SOD 100 U/ml), 131±6 % of control in data set [3] (ONOO− 100 μM in the presence of SOD 100 U/ml) and 327.7±39.5 % of control in data set [3] (SIN-1 100 μM in the presence of SOD 100 U/ml). For the same molecule, the “Effect on cGMP accumulation induced by SIN-1” value in data set [3] (SOD 100 U/ml, SIN-1 100 μM) is “effect similar to that of PQQ; also recorded: enhanced”.
